Test results reported in patent publication US10273279B2, “Protease activated receptor-1 (PAR1) derived cytoprotective polypeptides and related methods” (THE SCRIPPS RESEARCH INSTITUTE, priority 2011, dated 2019).

Assays:
SEAP-PAR1 = target: T1, SEAP-PAR1 (Homo sapiens, UniProt P25116, R46Q); assay: SEAP-PAR1 cleavage reporter on transfected HEK-293 cells (SEAP release); type: cell-based; settings: cells with wt-EPCR
T1 construct: we created a full-length PAR-1 construct linked at the N-terminus to an alkaline phosphatase reporter group (SEAP); expressed in transfected cells
T1 sequence (P25116 22-425 R46Q): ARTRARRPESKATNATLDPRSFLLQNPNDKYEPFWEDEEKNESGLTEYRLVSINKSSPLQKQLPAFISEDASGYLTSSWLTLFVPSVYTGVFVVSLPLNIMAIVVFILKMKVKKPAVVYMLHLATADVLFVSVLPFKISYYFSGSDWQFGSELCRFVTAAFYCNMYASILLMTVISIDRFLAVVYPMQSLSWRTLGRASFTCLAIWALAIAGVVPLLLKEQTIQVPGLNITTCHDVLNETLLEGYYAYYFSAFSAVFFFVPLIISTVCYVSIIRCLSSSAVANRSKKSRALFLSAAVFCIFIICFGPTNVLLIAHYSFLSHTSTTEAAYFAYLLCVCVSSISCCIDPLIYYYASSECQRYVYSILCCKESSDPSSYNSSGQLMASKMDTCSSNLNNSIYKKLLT
From the text: To facilitate analysis of APC-mediated PAR-1 activation, we created a full-length PAR-1 construct linked at the N-terminus to an alkaline phosphatase reporter group (SEAP). Selection of stable cell lines expressing both endothelial protein C receptor (EPCR) (wt or E86A) and SEAP-PAR1 allowed for a reliable and reproducible analysis of EPCR-dependent PAR-1 activation by APC. Mass-spec analysis of cleavage fragments generated by APC of a synthetic PAR-1 N-terminal tail peptide (TR33-62) identified both Arg^41 and Arg^46 as potential cleavage sites for APC proteolysis, as noted above. […] R41Q-SEAP-PAR1 was cleaved by APC in the presence of EPCR. This surprising result was also obtained for R41A-SEAP PAR1.
2009; 113:5970-5978. SEAP-PAR1, either in the presence or absence of wt-EPCR, were transfected into HEK-293 cells to obtain stable cells expressing SEAP-PAR1 or wt-EPCR/SEAP-PAR1. Mutations in SEAP-PAR1 were introduced using the Quickchange method (Agilent). Cells were grown in 96-wells plates to confluency in Dulbeco's modified Eagle media (DMEM): Ham's F-12 (Invitrogen) supplemented with penicillin-streptomycin-glutamine (PSG) (Gibco) and 10% fetal bovine serum (Omega) in a humidified atmosphere at 37° C. and 5% CO2 Cells were washed with Hank's balanced salt solution (HBSS; Invitrogen) supplemented with 1.3 mM CaCl2, 0.6 mM MgCl2 and 0.1% endotoxin free BSA (Calbiochem) and incubated with APC. After 60 min, SEAP release was determined using 1-step PNPP (Pierce). Values were corrected for background activity derived from the same cells incubated in the absence of APC and expressed as a percentage of total SEAP available on the cell membrane.

[1] = target: T2, synthetic PAR1 peptide (TR33-62) (Homo sapiens, UniProt P25116); assay: Cleavage of synthetic PAR1 peptide TR33-62 by APC or thrombin, reverse phase HPLC and MALDI-TOF; type: biochemical; settings: APC 500 nM or thrombin 5 nM, TR33-62 100 μM, HBS pH 7.4
T2 construct: purchased Biosynthesis; host or cells: chemical synthesis
T2 sequence (P25116 33-62 limits assumed): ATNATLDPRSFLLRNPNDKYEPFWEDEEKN
From the text: Samples were subjected to reverse phase HPLC on a C18 column while the eluent was monitored at 214 nm during a 0%-67% gradient of acetonitrile in water containing 0.1% trifluoroacetic acid. Peptide fragments were collected and subjected to MALDI-TOF (Scripps mass spectrometry core facility) analysis.

[2] = system: VEGF-induced vascular leakage in SKH1 hairless mice; assay: In vivo vascular permeability assay (modified Miles assay, VEGF-induced Evans blue extravasation in skin); set-up: species or system mouse; settings: for decrease in vascular leakage compared to PBS control: 125 μg peptide i.v. retro-orbital 5 min before s.c. VEGF165, Evans blue at 700 nm; for vascular leakage in the absence of VEGF: BSA vehicle sites, 125 μg peptide i.v.
Method: To probe whether TR47-66 could induce vascular protective effects in vivo, a modification of the modified Miles assay was used in which vascular permeability is measured by the extravasation of Evans blue dye in the skin induced by local subcutaneous injection of vascular endothelial growth factor (VEGF)165. Immunocompetent SKH1 hairless mice were used to avoid the need for hair removal that often can result in artifactual leakage due to inflammation of the skin. Evans blue extravasation in the skin was quantified using the Odyssey near-infrared fluorescent imager at 700 nm. TR47-66 peptide or the control scrTR47 peptide were injected i.v. in the retro-orbital sinus 5 min before local subcutaneous injection of recombinant murine VEGF or BSA control and 30 min after i.v. administration of Evans blue. In the absence of TR47-66 (PBS control), VEGF induced clearly distinguishable areas of Evans blue extravasation, whereas after injection of BSA vehicle control only the needle points marking the injection site could be observed. Quantification of Evans blue extravasation by near infrared fluorescence at 700 nm eliminated the time consuming need for Evans blue extraction from punch biopsy and provided reliable and reproducible results. […] Thus, like APC, the TR47 peptide causes activation of Rac1, stabilizes endothelial barriers in vitro, and in vivo can markedly reduce vascular leakage. The study was approved by the Institutional Animal Care and Use Committee of The Scripps Research Institute and complied with National Institutes of Health guidelines. SK1H1-E hairless male (6 to 8 weeks old) were from Charles River Labs (Wilmington, Mass.). Vascular permeability was determined using a known VEGF-induced leakage model (Sanna et al., Nat. Chem. Biol. 2006; 2(8):434-441; and Miles et al., J Physiol 1952; 118(2):228-257) with some modifications. Briefly, 100 μL of a sterile-filtered solution containing 0.5% (w/v) Evans blue (Sigma) in 0.9% NaCl (Sigma) was injected in isofluran-anesthetized mice. After 30 min, 50 μL of peptides (125 μg; TR47 or scrTR47) or PBS were injected intravenously in the retro-orbital sinus of mice anesthetized with Ketamin-Xylazin (100 and 10 mg/kg, respectively). After 5 min, mice received subcutaneously 15 μL of 75 ng/injection recombinant mouse VEGF165 (BioVision, Milpitas, Calif.) in 0.1% BSA-PBS (3 sites on the right side of the abdomen) or vehicle (2 sites on the left side). After 30 min, mice were sacrificed, photographed, and Evans blue extravasation in the skin was determined using the Odyssey Imager (LI-COR Biosciences, Lincoln, Nebr.) in the 700 nm channel with 4 mm offset. Quantification of the intensity of the Evans blue dye signal was done using the Odyssey Application Software version 3.0. […]

Row | Substance | cleavage of R46Q-SEAP-PAR1 (SEAP-PAR1) | cleavage sites in TR33-62 peptide [1] | decrease in vascular leakage compared to PBS control [2] | vascular leakage in the absence of VEGF [2]
1 | thrombin | efficient cleavage | cleavage at Arg^41 | – | –
2 | GDENENEKPNWYELKEPDSF (scrambled sequence) [scr-TR47-66, control scrambled TR47-66 peptide containing scrambled residues 47-66, reference compound] | – | – | indiscriminate from PBS control | Neither TR47-66 nor scrTR47 affected vascular leakage
3 | APC: Activated Protein C, serine protease with anticoagulant and cytoprotective cell signaling activities | did not eliminate PAR1 cleavage | cleaves this PAR1 peptide at Arg^46 as well as at Arg^41 | – | –
4 | NPNDKYEPFWEDEEKNESGL (listed as Homo sapiens) [TR47-66] | – | – | 45% | Neither TR47-66 nor scrTR47 affected vascular leakage
